Test system: MMP13 expression in SW1353 chondrosarcoma cell line
Assay: MMP13 assay: IL-1/OSM-driven MMP13 expression in SW1353 cells (MMP13 ELISA)
Format: cell-based
Conditions: Homo sapiens, IL-1β and OSM, 48 hr
Experimental: The protocol of the MMP13 ELISA is described in section 4.1, then testing of compounds on release of IL-1/OSM-driven MMP13 expression in SW1353 chondrosarcoma cell line is described in section 4.2.
A 384 well format ELISA for measurement of MMP13 was developed. Various primary antibodies were tested, as well as various ELISA protocols. The following protocol is developed and validated to measure MMP13 levels in supernatant of cell cultures in 384 well plates.
Black maxisorb 384 well plates (Nunc 460518) are coated with 35 μl of a buffered solution containing 1.5 μg/mL anti-MMP13 antibody MAB511 (R&D systems). The antibody is diluted in carbonate-bicarbonate coating buffer (1.59 g Na2CO3 (Sigma S-7795) and 2.93 g NaHCO3 (Sigma S-5761) in 1 L MilliQ water, adjusted to pH 9.6). After overnight incubation at 4° C., wells are washed twice with 100 μL PBST (80 g NaCl, 2 g KCl (Sigma), 11.5 g Na2HPO4.7H2O and 2 g KH2PO4 in 10 L milliQ water; pH 7.4+0.05% Tween-20 (Sigma)) and blocked with 100 μL/well blocking buffer (5% non fat dry milk in PBS). After overnight incubation at 4° C., wells are washed twice with 100 μL PBST. The PBST is removed and 35 μL of sample is transferred to the ELISA plates. After 4 hr incubation at RT, plates are washed twice with PBST and incubated for 1 hr at 37° C. with 35 μL/well 1.5 mM APMA solution (a 10 mM APMA stock solution is prepared one day before (35.18 mg APMA (Sigma A-9563) in 10 mL 0.1M NaOH (Merck 1.06469.1000) and stored at 4° C. Before use, the 10 mM APMA stock solution is diluted to 1.5 mM in 1×APMA buffer (10× APMA buffer: 500 mM Tris (Roche 708976), 50 mM CaCl2 (Sigma C-5080), […] ZnCl2 (Sigma Z-0173), 1.5 M NaCl (Calbiochem 567441), 0.5% Brij35 (Sigma 430 AG-6) and adjust to pH 7.0). After activation of MMP13 by APMA, plates are washed again two times with 100 μL PBST/well and 35 μL of substrate solution is added to each well. Substrate solution is prepared as follows: OmniMMP Fluorescent substrate (Biomol P-126) stock solution (2 mM in DMSO, stored at −20° C.) is diluted in 1× OmniMMP buffer (10× OmniMMP buffer: 500 mM Hepes (Sigma H4034), 100 mM CaCl2 (Sigma C5080), 0.5% Brij35 (Sigma 430 AG-6; adjusted to pH 7.0) to a final concentration of 0.01 mM. After an overnight incubation at 37° C., the active MMP13 in the sample has cleaved the substrate and released fluorescence. Readout is performed on the EnVision (Perkin Elmer) using 320 nm excitation/405 nm emission filters.
Human chondrosarcoma cell line SW1353 was acquired from ATCC and grown in DMEM supplemented with 10% heat-inactivated FBS and 1× penicillin/streptomycin (Invitrogen) in a humidified 5% CO2 incubator at 37° C. Aliquots of the cells were frozen and cryopreserved in liquid nitrogen. Starting from a cryopreserved aliquot, cells are further grown by sub-culturing at a 1/5-1/8 ratio twice a week by trypsinisation.
Starting from the compound master stocks (all at 10 mM concentration in 100% DMSO) a 3-fold serial dilution is made in 96-well plates in 100% DMSO. Then, plates are futher diluted 50-fold in M199 medium supplemented with 1% heat-inactivated FBS to obtain an intermediate work stock.
At day 1, SW1353 cells are seeded in 96-well plates (flat bottom, tissue culture treated, Greiner) at a density of 15000 cells/well in 120 μL growth medium. The next day, 15 μL compound out of the intermediate work stock is added. After an incubation period of 60 minutes, which allows the compounds to equilibrate and enter the cells, cells are stimulated with a mixture of IL-1β and OSM, added in a volume of 15 μL to obtain final concentrations of 1 ng/ml IL-1β and 25 ng/ml OSM. For that, stocks of IL-1 (10 μg/ml) and OSM (25 μg/ml) (both PeproTech) were diluted to 10 ng/ml and 250 ng/ml respectively, in M199 medium supplemented with 1% FBS. After incubation for 48 hr, the cell supernatant was harvested and an appropriate dilution was processed in the MMP13 ELISA as described above, delivering raw data (RFU: relative fluorescence units). […]

SMILES	IC50 [µM]
CC(C)N1C[C@@H]2C[C@H]1CN2c1ccc(Nc2ncc(-c3ccc4c(c3)CNC4=O)n3ncnc23)cc1 [Compound 1, 5-{8-[4-((1S,4S)-5-Isopropyl-2,5-diaza-bicyclo[2.2.1]hept-2-yl)-phenylamino]-[1,2,4]triazolo[1,5-a]pyrazin-5-yl}-2,3-dihydro-isoindol-1-one]	> 1
CC(C)N1C[C@@H]2C[C@H]1CN2c1ccc(Nc2ncc(-c3coc(C(N)=O)c3)n3ncnc23)cc1 [Compound 2, 4-{8-[4-((1S,4S)-5-Isopropyl-2,5-diaza-bicyclo[2.2.1]hept-2-yl)-phenylamino]-[1,2,4]triazolo[1,5-a]pyrazin-5-yl}-furan-2-carboxamide]	0.001 to 0.5
CC(C)(C)N1C[C@@H]2C[C@H]1CN2c1ccc(Nc2ncc(-c3coc(C(N)=O)c3)n3ncnc23)cc1 [Compound 3, 4-{8-[4-((1S,4S)-5-tert-Butyl-2,5-diaza-bicyclo[2.2.1]hept-2-yl)-phenylamino]-[1,2,4]triazolo[1,5-a]pyrazin-5-yl}-furan-2-carboxamide]	0.001 to 0.5
CC(C)N1C[C@@H]2C[C@H]1CN2c1ccc(Nc2ncc(-c3coc(C(N)=O)c3)n3ccnc23)cc1 [Compound 4, 4-{8-[4-((1S,4S)-5-Isopropyl-2,5-diaza-bicyclo[2.2.1]hept-2-yl)-phenylamino]-imidazo[1,2-a]pyrazin-5-yl}-furan-2-carboxamide]	> 1
CC(C)N1C[C@@H]2C[C@H]1CN2c1ccc(Nc2ncc(-c3cc(C(N)=O)n[nH]3)n3ncnc23)cc1 [Compound 5, 5-{8-(4-((1S,4S)-5-isopropyl-2,5-diazabicyclo[2.2.1]heptan-2-yl)phenyl-amino)-[1,2,4]triazolo[1,5-a]pyrazin-5-yl}-1H-pyrazole-3-carboxamide]	> 1
CC(C)(C)N1C[C@@H]2C[C@H]1CN2c1ccc(Nc2ncc(-c3coc(C(N)=O)c3)n3ccnc23)cc1 [Compound 6]	> 1
CC(C)N1C[C@@H]2C[C@H]1CN2c1ccc(Nc2ncc(-c3cc[nH]c(=O)c3)n3ccnc23)cc1 [Compound 8, 4-{8-(4-((1S,4S)-5-isopropyl-2,5-diazabicyclo[2.2.1]heptan-2-yl)phenyl-amino)imidazo[1,2-a]pyrazin-5-yl}-1H-pyridin-2-one]	0.001 to 0.5
CC(C)N1CC2CCC1CN2c1ccc(Nc2ncc(-c3coc(C(N)=O)c3)n3ncnc23)cc1 (centres unmarked) [Compound 9, 4-{8-(4-(5-isopropyl-2,5-diazabicyclo[2.2.2]octan-2-yl)phenylamino)[1,2,4]-triazolo[1,5-a]pyrazin-5-yl}-furan-2-carboxamide]	> 1
CC(C)N1CC2CCC(C1)N2c1ccc(Nc2ncc(-c3coc(C(N)=O)c3)n3ccnc23)cc1 [Compound 11, 4-{8-(4-(3-isopropyl-3,8-diazabicyclo[3.2.1]octan-8-yl)phenylamino)-imidazo[1,2-a]pyrazin-5-yl}-furan-2-carboxamide]	> 1
CC(C)N1C2CCC1CN(c1ccc(Nc3ncc(-c4coc(C(N)=O)c4)n4ncnc34)cc1)C2 [Compound 12, 4-{8-(4-(8-isopropyl-3,8-diazabicyclo[3.2.1]octan-3-yl)phenylamino)[1,2,4]-triazolo[1,5-a]pyrazin-5-yl}-furan-2-carboxamide]	> 1
CC(C)N1C[C@@H]2C[C@H]1CN2c1ccc(Nc2ncc(-c3cc(C(N)=O)n[nH]3)n3ncnc23)cn1 [Compound 15, 5-{8-(6-((1S,4S)-5-isopropyl-2,5-diazabicyclo[2.2.1]heptan-2-yl)pyridin-3-ylamino)-[1,2,4]triazolo[1,5-a]pyrazin-5-yl}-1H-pyrazole-3-carboxylic acid amide]	> 1
CC(C)(C)N1C[C@@H]2C[C@H]1CN2c1ccc(Nc2ncc(-c3ccc4c(c3)CNC4=O)n3ncnc23)cc1 [Compound 16, 5-{8-(4-((1S,4S)-5-tert-butyl-2,5-diazabicyclo[2.2.1]heptan-2-yl)phenylamino)-[1,2,4]triazolo-[1,5-a]pyrazin-5-yl}-2,3-dihydro-isoindol-1-one]	> 1
CC(C)(C)N1C[C@@H]2C[C@H]1CN2c1ccc(Nc2ncc(-c3cc(C(N)=O)n[nH]3)n3ncnc23)cc1 [Compound 17, 5-{8-(4-((1S,4S)-5-tert-butyl-2,5-diazabicyclo[2.2.1]heptan-2-yl)phenyl-amino)-[1,2,4]triazolo[1,5-a]pyrazin-5-yl}-1H-pyrazole-3-carboxylic acid amide]	0.501 to 1
CC(C)N1C[C@@H]2C[C@H]1CN2c1ccc(Nc2ncc(-c3ccc4c(c3)CNC4=O)n3ncnc23)cn1 [Compound 18, 5-{8-(6-((1S,4S)-5-isopropyl-2,5-diazabicyclo[2.2.1]heptan-2-yl)pyridin-3-ylamino)-[1,2,4]triazolo[1,5-a]pyrazin-5-yl}-2,3-dihydro-isoindol-1-one]	> 1
CCOc1cc(-c2cnc(Nc3ccc(N4C[C@@H]5C[C@H]4CN5C(C)C)cc3)c3ncnn23)ccn1 [Compound 19, 5-(2-ethoxypyridin-4-yl)-N-(4-((1S,4S)-5-isopropyl-2,5-diazabicyclo[2.2.1]heptan-2-yl)phenyl)-[1,2,4]triazolo[1,5-a]pyrazin-8-amine]	> 1
CC(C)N1C[C@@H]2C[C@H]1CN2c1ccc(Nc2ncc(-c3cc[nH]c(=O)c3)n3ncnc23)cc1 [Compound 20, 4-(8-(4-((1S,4S)-5-isopropyl-2,5-diazabicyclo[2.2.1]heptan-2-yl)phenylamino)-[1,2,4]triazolo[1,5-a]pyrazin-5-yl)pyridin-2(1H)-one]	> 1
CCOC(=O)c1cc(-c2cnc(Nc3ccc(N4C[C@@H]5C[C@H]4CN5C(C)C)cc3)c3ncnn23)[nH]n1 [Compound 21, Ethyl 5-(8-(4-((1S,4S)-5-isopropyl-2,5-diazabicyclo[2.2.1]heptan-2-yl)phenylamino)-[1,2,4]triazolo[1,5-a]pyrazin-5-yl)-1H-pyrazole-3-carboxylate]	> 1
CCOc1cc(-c2cnc(Nc3ccc(N4C[C@@H]5C[C@H]4CN5C(C)C)cc3)c3nccn23)ccn1 [Compound 22, 5-(2-ethoxypyridin-4-yl)-N-(4-((1S,4S)-5-isopropyl-2,5-diazabicyclo[2.2.1]heptan-2-yl)phenyl)imidazo[1,2-a]pyrazin-8-amine]	> 1
CC(C)N1C[C@@H]2C[C@H]1CN2c1ccc(Nc2ncc(-c3noc(C(N)=O)n3)n3ncnc23)cc1 [Compound 23, 3-(8-(4-((1S,4S)-5-isopropyl-2,5-diazabicyclo[2.2.1]heptan-2-yl)phenylamino)-[1,2,4]triazolo[1,5-a]pyrazin-5-yl)-1,2,4-oxadiazole-5-carboxamide]	> 1
CC(C)N1C[C@@H]2C[C@H]1CN2c1cccc(Nc2ncc(-c3coc(C(N)=O)c3)n3ncnc23)c1 [Compound 24, 4-(8-(3-((1S,4S)-5-isopropyl-2,5-diazabicyclo[2.2.1]heptan-2-yl)phenylamino)-[1,2,4]triazolo[1,5-a]pyrazin-5-yl)furan-2-carboxamide]	> 1

— US8012983B2, “Substituted triazolopyrazines useful for the treatment of degenerative and inflammatory diseases” (Galapagos NV, priority 2008, dated 2011)
